Common to all, as to experiment: MIC, broth microdilution in TSB
Common to all, as to type: cell-based
A general note: Broth dilution looks for growth in wells or tubes with falling amounts of substance.

Assay [1] deals with Enterococcus faecium Patient #3-1 NR-31912. Conditions: TSB, Table 7; for MIC: Enterococcus faecium, read-out: MIC in TSB. The procedure:
(§1) The minimum inhibitory concentrations (MICs) of the compounds and control drugs were determined using the broth microdilution method, according to guidelines outlined by the Clinical and Laboratory Standards Institute (CLSI). Enterococci strains were grown aerobically overnight on tryptone soya agar plates at 37° C., afterwards a bacterial solution equivalent to 0.5 McFarland standard was prepared and diluted in tryptone soy broth (TSB) to achieve a bacterial concentration of about 5×10^5 CFU/mL and seeded in 96-well well plates. Compounds and control drugs were added in the first row of the 96-well plates and serially diluted along the plates. Plates were then incubated aerobically at 37° C. for 18-20 hours. MICs reported in Table 1 are the minimum concentration of the compounds/control drugs that could inhibit completely the visual growth of the bacteria.

Assay [2] concerns Enterococcus fecalis Strain SF 28073-NR31972. The settings on record: TSB, Table 7; for MIC: Enterococcus, read-out: MIC in TSB. On the procedure: as §1
The test system of assay [3] is Enterococcus faecium E417-HM-965. The settings on record: TSB, Table 7; for MIC: Enterococcus faecium, E417HM965, read-out: MIC in TSB. The procedure:
as §1

Assay [4] concerns Enterococcus faecium Patient #2-1-NR-31909. Conditions: TSB, Table 7; for MIC: Enterococcus faecium, read-out: MIC in TSB. The procedure: as §1
Assay [5] deals with Enterococcus fecalis Strain SF 24397 NR31970. Conditions: TSB, Table 7; for MIC: Enterococcus, read-out: MIC in TSB. The procedure: as §1
The test system of assay [6] is Enterococcus fecalis Strain SF24413 NR31971. Conditions: TSB, Table 7; for MIC: Enterococcus, read-out: MIC in TSB. On the procedure: as §1
The test system of assay [7] is Enterococcus fecalis Strain MMH594-NR31975. The settings on record: TSB, Table 7; for MIC: Enterococcus, read-out: MIC in TSB. On the procedure:
as §1

Assay [8] concerns Enterococcus faecalis—S613 HM-334. The settings on record: TSB, Table 7; for MIC: Enterococcus, read-out: MIC in TSB. The procedure: as §1

≈ marks a conversion by molar mass, not a printed value.

As a reminder, the MIC is the lowest concentration found to suppress growth.

Take `NS(=O)(=O)c1nnc(NCc2ccc(Br)cc2)s1` [CAI0003, 5-((4-bromobenzyl)amino)-1,3,4-thiadiazole-2-sulfonamide]: the MIC in assay [1], in assay [2], in assay [3] and in assay [4] was more than 64 µg/mL each time.
Regarding `CC(C)CC(=O)Nc1nnc(S(N)(=O)=O)s1` [CAI0026, 3-Methyl-N-(5-sulfamoyl-1,3,4-thiadiazol-2-yl)butanamide], the MIC in assay [1] worked out at 0.125 µg/mL (≈ 0.473 µM); in assay [5], 0.25 µg/mL (≈ 0.946 µM); in assay [6], 0.25 µg/mL (≈ 0.946 µM); in assay [7], 0.25 µg/mL (≈ 0.946 µM); in assay [2] it was 0.5 µg/mL (≈ 1.89 µM); in assay [3], 0.125 µg/mL (≈ 0.473 µM). Besides, the MIC in assay [8] is 0.25 µg/mL (≈ 0.946 µM); in assay [4], 0.003 µg/mL (≈ 0.0113 µM).
In the case of `NS(=O)(=O)c1nnc(NCc2ccccc2)s1` [CAI0005, 5-(benzylamino)-1,3,4-thiadiazole-2-sulfonamide], the MIC in assay [2], in assay [3] and in assay [4] was more than 64 µg/mL each time.
Regarding `NS(=O)(=O)c1nnc(NCc2cccc(C(F)(F)F)c2)s1` [CAI0007, 5-((3-(trifluoromethyl)benzyl)amino)-1,3,4-thiadiazole-2-sulfonamide], the MIC came to 8 µg/mL (≈ 23.6 µM) in assay [1], 4 µg/mL (≈ 11.8 µM) in assay [2], 8 µg/mL (≈ 23.6 µM) in assay [3] and 8 µg/mL (≈ 23.6 µM) in assay [4].
`NS(=O)(=O)c1nnc(NCc2ccc(C(F)(F)F)cc2)s1` [CAI0008, 5-((4-(trifluoromethyl)benzyl)amino)-1,3,4-thiadiazole-2-sulfonamide]: the MIC in assay [1], in assay [2], in assay [3] and in assay [4] was more than 64 µg/mL each time.
Regarding `NS(=O)(=O)c1nnc(NCc2ccc(Cl)cc2)s1` [CAI0001, 5-((4-chlorobenzyl)amino)-1,3,4-thiadiazole-2-sulfonamide], the MIC in assay [1] was more than 64 µg/mL; in assay [2] it was more than 64 µg/mL; in assay [3], more than 64 µg/mL; in assay [4], 8 µg/mL (≈ 26.2 µM).
Take `NS(=O)(=O)c1nnc(NCc2cccc(Br)c2)s1` [CAI0004, 5-((3-bromobenzyl)amino)-1,3,4-thiadiazole-2-sulfonamide]: the MIC was 8 µg/mL (≈ 22.9 µM) in assay [1], 8 µg/mL (≈ 22.9 µM) in assay [2], 16 µg/mL (≈ 45.8 µM) in assay [3] and 8 µg/mL (≈ 22.9 µM) in assay [4].
Take “3-cyclohexyl-N-(5-sulfamoyl-1,3,4-thiadiazol-2-yl) propenamide [CAI0019]”: the “MIC in TSB” value in assay [1] was found to be 0.007 µg/mL; in assay [5], 0.015 µg/mL; in assay [6] it was 0.015 µg/mL; in assay [7], 0.015 µg/mL; in assay [2], 0.015 µg/mL; in assay [3], 0.007 µg/mL. Moreover, the “MIC in TSB” value in assay [8] worked out at 0.007 µg/mL; in assay [4], 0.003 µg/mL.
`NS(=O)(=O)c1nnc(NC(=O)C2CCC2)s1` [CAI0018, N-(5-Sulfamoyl-1,3,4-thiadiazol-2-yl)cyclobutanecarboxamide]: the MIC in assay [1] was 0.5 µg/mL (≈ 1.91 µM); in assay [5] it was 1 µg/mL (≈ 3.81 µM); in assay [6] it was 1 µg/mL (≈ 3.81 µM); in assay [7], 0.5 µg/mL (≈ 1.91 µM); in assay [2] it was 1 µg/mL (≈ 3.81 µM); in assay [3] it was 0.5 µg/mL (≈ 1.91 µM). Besides, the MIC in assay [8] was found to be 1 µg/mL (≈ 3.81 µM); in assay [4], 0.25 µg/mL (≈ 0.953 µM).
Consider `NS(=O)(=O)c1nnc(NC(=O)CC2CCCC2)s1` [CAI0021, 2-Cyclopentyl-N-(5-sulfamoyl-1,3,4-thiadiazol-2-yl)acetamide], for which the MIC in assay [1] amounted to 0.03 µg/mL (≈ 0.103 µM); in assay [5] it was 0.03 µg/mL (≈ 0.103 µM); in assay [6], 0.06 µg/mL (≈ 0.207 µM); in assay [7] it was 0.03 µg/mL (≈ 0.103 µM); in assay [2], 0.03 µg/mL (≈ 0.103 µM); in assay [3], 0.06 µg/mL (≈ 0.207 µM). Further, the results for the MIC in assay [8] and in assay [4] were 0.03 µg/mL (≈ 0.103 µM) and 0.003 µg/mL (≈ 0.0103 µM), respectively.
For the compound `CCCCCCC(=O)Nc1nnc(S(N)(=O)=O)s1` [CAI0027, N-(5-Sulfamoyl-1,3,4-thiadiazol-2-yl)heptanamide], the MIC in assay [1] stood at 0.007 µg/mL (≈ 0.0239 µM); in assay [5] it was 0.007 µg/mL (≈ 0.0239 µM); in assay [6], 0.015 µg/mL (≈ 0.0513 µM); in assay [7], 0.015 µg/mL (≈ 0.0513 µM); in assay [2], 0.015 µg/mL (≈ 0.0513 µM); in assay [3] it was 0.015 µg/mL (≈ 0.0513 µM). Moreover, the MIC in assay [8] came to 0.007 µg/mL (≈ 0.0239 µM); in assay [4] it was 0.001 µg/mL (≈ 0.00342 µM).
Take `CC(=O)Nc1nnc(S(C)(=O)=O)s1` [CAI0025, N-(5-(Methylsulfonyl)-1,3,4-thiadiazol-2-yl)acetamide]: the MIC in assay [1], in assay [5], in assay [6], in assay [7], in assay [2] and in assay [3] was more than 128 µg/mL each time. In addition, the MIC in assay [8] and in assay [4] was more than 128 µg/mL each time.
Turning to `NS(=O)(=O)c1nnc(NC(=O)C2CC2)s1` [CAI0020, N-(5-Sulfamoyl-1,3,4-thiadiazol-2-yl)cyclopropanecarboxamide], the MIC in assay [1] came out at 0.007 µg/mL (≈ 0.0282 µM); in assay [5], 0.015 µg/mL (≈ 0.0604 µM); in assay [6] it was 0.015 µg/mL (≈ 0.0604 µM); in assay [7] it was 0.007 µg/mL (≈ 0.0282 µM); in assay [2] it was 0.003 µg/mL (≈ 0.0121 µM); in assay [3], 0.007 µg/mL (≈ 0.0282 µM). The MIC in assay [8] is 0.007 µg/mL (≈ 0.0282 µM); in assay [4], 0.001 µg/mL (≈ 0.00403 µM).
For the compound `NS(=O)(=O)c1nnc(NCc2ccccc2C(F)(F)F)s1` [CAI0006, 5-((2-(trifluoromethyl)benzyl)amino)-1,3,4-thiadiazole-2-sulfonamide], the MIC in assay [2], in assay [3] and in assay [4] was more than 64 µg/mL each time.
`CC(C)(C)CC(=O)Nc1nnc(S(N)(=O)=O)s1` [CAI0028, 3,3-Dimethyl-N-(5-sulfamoyl-1,3,4-thiadiazol-2-yl)butanamide]: the MIC in assay [1] turned out to be 0.003 µg/mL (≈ 0.0108 µM); in assay [5], 0.015 µg/mL (≈ 0.0539 µM); in assay [6] it was 0.03 µg/mL (≈ 0.108 µM); in assay [7] it was 0.03 µg/mL (≈ 0.108 µM); in assay [2], 0.03 µg/mL (≈ 0.108 µM); in assay [3], 0.015 µg/mL (≈ 0.0539 µM). Moreover, the values for the MIC in assay [8] and in assay [4] were 0.03 µg/mL (≈ 0.108 µM) and 0.003 µg/mL (≈ 0.0108 µM), respectively.
For the compound `NS(=O)(=O)c1nnc(NC(=O)CC2CCCCC2)s1` [CAI0029, 2-Cyclohexyl-N-(5-sulfamoyl-1,3,4-thiadiazol-2-yl)acetamide], the MIC in assay [1] was 0.03 µg/mL (≈ 0.0986 µM); in assay [5], 0.007 µg/mL (≈ 0.023 µM); in assay [6], 0.03 µg/mL (≈ 0.0986 µM); in assay [7], 0.015 µg/mL (≈ 0.0493 µM); in assay [2] it was 0.015 µg/mL (≈ 0.0493 µM); in assay [3], 0.06 µg/mL (≈ 0.197 µM). Besides, the MIC in assay [8] came to 0.015 µg/mL (≈ 0.0493 µM); in assay [4], 0.001 µg/mL (≈ 0.00329 µM).
For `NS(=O)(=O)c1nnc(NC(=O)C2CCCCC2)s1` [CAI0022, N-(5-Sulfamoyl-1,3,4-thiadiazol-2-yl)cyclohexanecarboxamide], the minimal inhibitory concentration (MIC) in assay [1] is 0.125 µg/mL (≈ 0.43 µM); in assay [5], 0.25 µg/mL (≈ 0.861 µM); in assay [6] it was 0.5 µg/mL (≈ 1.72 µM); in assay [7], 0.25 µg/mL (≈ 0.861 µM); in assay [2] it was 0.25 µg/mL (≈ 0.861 µM); in assay [3] it was 0.25 µg/mL (≈ 0.861 µM). In addition, the MIC in assay [8] came to 0.25 µg/mL (≈ 0.861 µM); in assay [4] it was 0.015 µg/mL (≈ 0.0517 µM).
Regarding `NS(=O)(=O)c1nnc(NCc2ccccc2Cl)s1` [CAI0002, 5-((2-chlorobenzyl)amino)-1,3,4-thiadiazole-2-sulfonamide], the MIC in assay [1], in assay [2], in assay [3] and in assay [4] was more than 64 µg/mL each time.
Regarding `NS(=O)(=O)c1nnc(NC(=O)C2CCCC2)s1` [CAI0023, N-(5-Sulfamoyl-1,3,4-thiadiazol-2-yl)cyclopentanecarboxamide], the MIC in assay [1] amounted to 0.25 µg/mL (≈ 0.905 µM); in assay [5] it was 0.5 µg/mL (≈ 1.81 µM); in assay [6], 0.5 µg/mL (≈ 1.81 µM); in assay [7] it was 0.5 µg/mL (≈ 1.81 µM); in assay [2], 1 µg/mL (≈ 3.62 µM); in assay [3], 0.25 µg/mL (≈ 0.905 µM). Besides, the MIC in assay [8] came out at 0.5 µg/mL (≈ 1.81 µM); in assay [4], 0.06 µg/mL (≈ 0.217 µM).

The record behind these values is patent publication US12378211B2, “Carbonic anhydrase inhibitors and antibiotics against multidrug resistant bacteria” (Purdue Research Foundation, priority 2018, dated 2025).
